Data set [1] deals with healthy erythrocytes (human RBCs).
Method: Hemolysis assays were performed using human RBCs according to previous reports ([38]). Briefly, serial dilutions of peptides were incubated with 2% hematocrit RBCs (in PBS) at 37°C for three different time points (15, 30, and 60 min) in triplicates. After incubation, the RBCs were centrifuged for 10 min at 1,000 × g and the absorbance of the supernatants at 540 nm was read by a spectrophotometer to assess the level of the released hemoglobin. Maximum hemolysis was determined by substituting the sample with 1% Triton X-100, which completely lyses the cells. […] Hemolysis of peptides was calculated using the following formula: Hemolysis (%) = (A540 of peptide- A540 of PBS) * 100/A540 of Triton X-100. Two independent tests with three technical replicates were performed for each hemolysis assay.
In data set [2] the test system is P. falciparum 3D7 (sensitive strain). Description: In vitro antimalarial activity, 3-day inhibition assay. Type of data set: cell-based, Plasmodium falciparum. As to conditions: Giemsa smears. How it is done:
(§1) Blood stages of the laboratory clones P. falciparum 3D7 (sensitive strain), P. falciparum 803 (artemisinin-resistant strain), and P. falciparum Dd2 (chloroquine-resistant strain) were cultured in vitro according to the method of Trager and Jensens with minor modifications ([37]). Briefly, cultures were maintained in O-positive human erythrocytes (RBCs) as host cells at 2% hematocrit and maintained in complete medium (CM) [RPMI-1640 culture medium supplemented with NaHCO3 (2 mg/mL), hypoxanthine (50 µg/mL), HEPES (5.96 mg/mL), albumax II (1%), and gentamicin (40 µg/mL)]. The cultures were diluted to 1% parasitemia and 2% hematocrit in CM and incubated in a humidified atmosphere with 5% O2, 5% CO2, and 90% N2 at 37°C. Prior to experiments, the cultures were highly synchronized for ring stages using 5% sorbitol twice at a 40-h interval. Briefly, ring stage cultures were centrifuged and the pellet was washed once in incomplete medium (ICM, RPMI-1640 without addition). Then, the pellet was resuspended in 5% sorbitol and incubated at 37°C for 10 min. After incubation, the suspension was centrifuged and the pellet was washed once and resuspended in medium. The development of the parasite was observed using light microscopy, and parasitemia was determined by counting at least 10,000 RBCs on Giemsa’s solution-stained thin blood smears.
Highly synchronous ring stage parasites were used to investigate the in vitro antimalarial activity of the peptides. For preliminary screening of in vitro antimalarial activity, a 3-day inhibition assay was used to test the antimalarial activity of An-cecA, An-cecB, and An-cecC. […] For IC50 assay, a series of concentrations of peptides were added to the parasite culture. The concentrations of An-cecB were 5, 15, 20, 25, 30, 35, and 40 µM, while those of An-cecB-1 were 20, 30, 40, 50, 60, 70, 80, and 90 µM. After 72 hours of incubation, the antimalarial effects of peptides were estimated. Thin blood films stained with Giemsa’s solution were counted under a microscope. The parasitemia of cultures treated with peptides was compared with that of control. IC50 was calculated by GraphPad Prism.

The subject of data set [3] is P. falciparum Dd2 (chloroquine-resistant strain). The experiment in a line: In vitro antimalarial IC50 assay. The class given is cell-based, Plasmodium falciparum. The settings on record: strain Dd2, 72 h incubation, Giemsa smears. On the procedure: as §1, with “Then, the pellet was resuspended in 5% sorbitol and incubated at 37°C for 10 min. After incubation, the suspension was centrifuged and the pellet was washed once and resuspended in medium.” left out
Highly synchronous ring stage parasites were used to investigate the in vitro antimalarial activity of the peptides. […] Thin blood films stained with Giemsa’s solution were counted under a microscope. […] IC50 was calculated by GraphPad Prism.

Data set [4] has as its system Staphylococcus aureus (ATCC 6538). The experiment in a line: Antimicrobial assay, broth dilution. Type of data set: cell-based. As to conditions: S. aureus. On the procedure:
(§2) Gram-positive bacteria S. aureus, B. subtilis, and Gram-negative E. coli were used in antimicrobial assays. Bacteria were first grown in LB (Luria-Bertani) broth to an absorbance of 0.8 at 600 nm. The antibacterial behavior of the peptides was studied via the agar disc diffusion assay and broth microdilution method ([41], [42]). The agar plates were made by pouring 20 mL of LB broth containing 1.5% agar into 60-mm Petri dishes. Then, a 100-µL bacterial suspension (10^6 CFU/mL) was spread over the LB agar plate. Ten microliters of the 2-mg/mL peptide sample was carefully dropped onto sterile 2-mm diameter paper discs that had been previously attached to the plate. The plates were carefully placed in an incubator at 37°C for 24 hours. If an examined sample had antimicrobial activity, a clear zone was observed around the filter paper representing inhibition of bacterial growth. The MIC was determined by the broth dilution method, and the absorbance value was measured at an optical density at 600 nm (OD600) to determine the inhibition rate of peptides at different concentrations against each bacteria. Then, the MIC at which no visible growth occurred was recorded ([38]). The MIC50 was calculated by GraphPad Prism.
Background: Broth dilution looks for growth in wells or tubes with falling amounts of substance.

Data set [5] has as its system Escherichia coli (ATCC 25922). Description: Antimicrobial assay, broth dilution. The class given is cell-based. As to conditions: E. coli. How it is done: as §2
Data set [6] has as its system Bacillus subtilis (ATCC). The experiment in a line: Antimicrobial assay, broth dilution. Type of data set: cell-based. As to conditions: B. subtilis. How it is done: as §2
Data set [7] concerns Plasmodium berghei (ANKA). The class given is in vivo. As to conditions: for Inhibition (%) of P. berghei growth: parasitemia on day 4, BALB/c mice. On the procedure: The in vivo antimalarial activity of peptides was evaluated using a 4-day suppressive test in P. berghei-infected mouse model mice ([44]). The mice were divided into five groups of six mice. Donor mice were infected with 200 µL of P. berghei parasite inoculum by intraperitoneal injection. Parasitized blood was collected from the tail vein of donor mice and diluted with 0.9% sodium chloride solution. Mice were then infected with saline suspension of 1 × 10^7 parasitized erythrocytes (0.2 mL) by intraperitoneal injection (Day0). Four hours after infection, each of the three groups of mice was treated with peptide by intraperitoneal injection at daily doses of 10, 25, and 50 mg/kg for 4 consecutive days. Positive control mice were treated with chloroquine at daily doses of 10 mg/kg and negative control mice with normal saline. On day 4 (96 hours post infection), the parasitemia of each mouse was determined under a light microscope by examination of Giemsa’s solution-stained thin blood smears prepared from mouse tail blood ([28]). The mean parasitemia in each group of mice was used to calculate the % suppression for each dose using the following formula:
%suppression = (parasitemia of negative control − parasitemia of test) * 100/parasitemia of negative control.
The antimalarial activity of the peptides was determined from the ratio of the percentage of parasite reduction in treated and negative control groups ([44]). Results were expressed as median (range) values.

Like-named read-outs stand apart in the source and are kept apart here.

Take “APRWKFGKRLEKLGRNVFRAA KKALPVIAGYKAL-NH2 [An-cecB]”: the figures for the hemolysis rate entry in data set [1] (10 µM), in data set [1] (20 µM) and in data set [1] (40 µM) were “less than 2%”, “less than 2%” and “less than 5%”, respectively. The same sequence had an inhibition rate in data set [2] (50 µM peptide, 72 h, ring stage, 1% parasitemia, 2% hematocrit) of 100%. In addition, the IC50 came out at 12.4 µM in data set [2] (3D7, 72 h incubation, GraphPad Prism, two independent assays, three technical replicates) and 12.8 µM in data set [3]. The values for the MIC in data set [4] (OD600), in data set [5] (OD600) and in data set [6] (OD600) were 30 µM, 3.75 µM and 3.75 µM, respectively. Moreover, the MIC50 in data set [4] (OD600, GraphPad Prism) came out at 7.314 µM; in data set [5] (OD600, GraphPad Prism), 0.63 µM; in data set [6] (OD600, GraphPad Prism) it was 0.85 µM. Also, the “Inhibition (%) of P. berghei growth” value in data set [7] (10 mg/kg daily i.p. for 4 consecutive days) is reported as 0.63%; in data set [7] (25 mg/kg daily i.p. for 4 consecutive days), 5.12%. The “mortality of infected mice in the 4-day suppressive test” value in data set [7] (in vivo) is on record as “all infected mice died before the end of the experiment”.

For orientation: IC50 means the midpoint of a concentration-inhibition curve. A lower IC50 goes with greater potency in that assay. What is called MIC is the least concentration at which growth counts as inhibited. Usually MIC50 stands for an inhibitory concentration at the 50% level, which refers to growth in some studies and to a panel of isolates in others. Read a high MIC50 as weaker potency.

These data come from PMC11232398, “Antimalarial activity of cecropin antimicrobial peptides derived from Anopheles mosquitoes” (Antimicrobial Agents and Chemotherapy, 2024).
